Data: patent US20250179061A1 (SIRONAX LTD., priority 2022, published 2025)
Counter-ions that a name gives are not always drawn.

Test system: HT-29 cells
Assay: HT-29 necroptosis cell viability assay (TNF-α/SMAC mimetic/zVAD-FMK, CellTiter-Glo)
Type: cell-based
Conditions: Homo sapiens, HT-29, HT-29 necroptosis cell viability assay; class symbols for IC50; read-out: Activity
Summary of the method: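 Necroptosis was triggered by TNF-α (10 ng/ml), SMAC mimetic (6 μM) and zVAD-FMK (10 μM) in serum-free medium during 20 h compound exposure (10 concentrations, threefold steps) of HT-29 cells. IC50 from duplicate dose-responses uses CellTiter-Glo ATP luminescence as viability read-out.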

Row | Compound | IC50 [nM]
1 | Cc1nc(N2CC(C)(N)C2)sc1C(=O)c1ccc(-n2ncn(Cc3c(F)cccc3F)c2=O)cc1 [Example 507, 2-(4-(2-(3-amino-3-methylazetidin-1-yl)-4-methylthiazole-5-carbonyl)phenyl)-4-(2,6-difluorobenzyl)-2,4-dihydro-3H-1,2,4-triazol-3-one trifluoroacetate] | 100 to 1000
2 | Cc1nc(N2CC(C)(NC(=O)OC(C)(C)C)C2)sc1C(=O)c1ccc(-n2ncn(Cc3c(F)cccc3F)c2=O)cc1 [Example 508, tert-butyl (1-(5-(4-(4-(2,6-difluorobenzyl)-5-oxo-4,5-dihydro-1H-1,2,4-triazol-1-yl)benzoyl)-4-methylthiazol-2-yl)-3-methylazetidin-3-yl)carbamate] | 100 to 1000
3 | Cc1nc(N2CC(C)(N)C2)sc1Cc1ccc(-n2ncn(Cc3c(F)cccc3F)c2=O)cc1 [Example 509, 2-(4-((2-(3-amino-3-methylazetidin-1-yl)-4-methylthiazol-5-yl)methyl)phenyl)-4-(2,6-difluorobenzyl)-2,4-dihydro-3H-1,2,4-triazol-3-one] | < 100
4 | Cc1nc(N2CC(C)(C#N)C2)sc1C(=O)c1ccc(-n2ncn(Cc3c(F)cccc3F)c2=O)cc1 [Example 510, 1-(5-(4-(4-(2,6-difluorobenzyl)-5-oxo-4,5-dihydro-1H-1,2,4-triazol-1-yl)benzoyl)-4-methylthiazol-2-yl)-3-methylazetidine-3-carbonitrile] | 100 to 1000
5 | Cc1nc(N2CC(C)(C#N)C2)sc1C(O)c1ccc(-n2ncn(Cc3c(F)cccc3F)c2=O)cc1 (stereo not shown) [Example 511, 1-(5-((4-(4-(2,6-difluorobenzyl)-5-oxo-4,5-dihydro-1H-1,2,4-triazol-1-yl)phenyl)(hydroxy)methyl)-4-methylthiazol-2-yl)-3-methylazetidine-3-carbonitrile] | 1000 to 10000
6 | Cc1nc(N2CC(C)(C#N)C2)sc1Cc1ccc(-n2ncn(Cc3c(F)cccc3F)c2=O)cc1 [Example 512, 1-(5-(4-(4-(2,6-difluorobenzyl)-5-oxo-4,5-dihydro-1H-1,2,4-triazol-1-yl)benzyl)-4-methylthiazol-2-yl)-3-methylazetidine-3-carbonitrile] | < 100
7 | Cc1nc(N2CC(C)(N)C2)sc1C(C)c1ccc(-n2ncn(Cc3c(F)cccc3F)c2=O)cc1 (stereo not shown) [Example 513, 2-[4-[1-[2-(3-amino-3-methyl-azetidin-1-yl)-4-methyl-thiazol-5-yl]ethyl]phenyl]-4-[(2,6-difluorophenyl)methyl]-1,2,4-triazol-3-one; 2,2,2-trifluoroacetic acid] | 100 to 1000
8 | Cc1nc(N2CC(C)(NC(=O)OC(C)(C)C)C2)sc1C(C)c1ccc(-n2ncn(Cc3c(F)cccc3F)c2=O)cc1 (stereo not shown) [Example 514, tert-butyl (1-(5-(1-(4-(4-(2,6-difluorobenzyl)-5-oxo-4,5-dihydro-1H-1,2,4-triazol-1-yl)phenyl)ethyl)-4-methylthiazol-2-yl)-3-methylazetidin-3-yl)carbamate] | < 100
9 | Cc1nc(N2CC(C)(NC(=O)OC(C)(C)C)C2)sc1C(C)(O)c1ccc(-n2ncn(Cc3c(F)cccc3F)c2=O)cc1 (stereo not shown) [Example 516, tert-butyl (1-(5-(1-(4-(4-(2,6-difluorobenzyl)-5-oxo-4,5-dihydro-1H-1,2,4-triazol-1-yl)phenyl)-1-hydroxyethyl)-4-methylthiazol-2-yl)-3-methylazetidin-3-yl)carbamate] | < 100
10 | CCOC1CN(c2nn(C)c(Oc3ccc(-n4ncn(Cc5c(F)cccc5F)c4=O)cc3)c2N)C1 [Example 517, 2-(4-((4-amino-3-(3-ethoxyazetidin-1-yl)-1-methyl-1H-pyrazol-5-yl)oxy)phenyl)-4-(2,6-difluorobenzyl)-2,4-dihydro-3H-1,2,4-triazol-3-one] | 1000 to 10000
11 | Cc1ncc(C#N)cc1Oc1ccc(-n2ncn(Cc3c(F)cccc3F)c2=O)cc1 [Example 518, 5-(4-(4-(2,6-difluorobenzyl)-5-oxo-4,5-dihydro-1H-1,2,4-triazol-1-yl)phenoxy)-6-methylnicotinonitrile] | 1000 to 10000
12 | CC(C)(C)CC(=O)Nc1cc(Oc2ccc(-n3ncn(Cc4c(F)cccc4F)c3=O)cc2)ccn1 [Example 519, N-[4-[4-[4-[(2,6-difluorophenyl)methyl]-5-oxo-1,2,4-triazol-1-yl]phenoxy]-2-pyridyl]-3,3-dimethyl-butanamide] | 100 to 1000
13 | O=C(CC1CC1)Nc1cc(Oc2ccc(-n3ncn(Cc4c(F)cccc4F)c3=O)cc2)ccn1 [Example 520, 2-cyclopropyl-N-[4-[4-[4-[(2,6-difluorophenyl)methyl]-5-oxo-1,2,4-triazol-1-yl]phenoxy]-2-pyridyl]acetamide] | 100 to 1000
14 | CC(=O)Nc1cc(Oc2ccc(-n3ncn(Cc4c(F)cccc4F)c3=O)cc2)ccn1 [Example 521, N-[4-[4-[4-[(2,6-difluorophenyl)methyl]-5-oxo-1,2,4-triazol-1-yl]phenoxy]-2-pyridyl]acetamide] | 100 to 1000
15 | O=C1CC(n2ncn(Cc3ccccc3)c2=O)CCN1Cc1ccccc1 (stereo not shown) [Example 522, 1-benzyl-4-(4-benzyl-5-oxo-4,5-dihydro-1H-1,2,4-triazol-1-yl)piperidin-2-one] | > 10000
16 | O=c1n(Cc2c(F)cccc2F)cnn1-c1ccc(Oc2ccnc(NC3CC3)c2)cc1 [Example 523, 2-(4-((2-(cyclopropylamino)pyridin-4-yl)oxy)phenyl)-4-(2,6-difluorobenzyl)-2,4-dihydro-3H-1,2,4-triazol-3-one] | 100 to 1000

Row | Compound | IC50 [nM]
17 | O=c1n(Cc2c(F)cccc2F)cnn1-c1ccc(Oc2ccnc(NCC3CC3)c2)cc1 [Example 524, 2-(4-((2-((cyclopropylmethyl)amino)pyridin-4-yl)oxy)phenyl)-4-(2,6-difluorobenzyl)-2,4-dihydro-3H-1,2,4-triazol-3-one] | < 100
18 | O=c1n(Cc2c(F)cccc2F)cnn1-c1ccc(Oc2ccnc(N3CCCC3)c2)cc1 [Example 525, 4-(2,6-difluorobenzyl)-2-(4-((2-(pyrrolidin-1-yl)pyridin-4-yl)oxy)phenyl)-2,4-dihydro-3H-1,2,4-triazol-3-one] | 100 to 1000
19 | O=c1n(Cc2c(F)cccc2F)cnn1-c1ccc(Oc2ccnc(N3CCOCC3)c2)cc1 [Example 526, 4-(2,6-difluorobenzyl)-2-(4-((2-morpholinopyridin-4-yl)oxy)phenyl)-2,4-dihydro-3H-1,2,4-triazol-3-one] | 1000 to 10000
20 | O=c1n(Cc2c(F)cccc2F)cnn1-c1ccc(Oc2ccnc(N3CC4(COC4)C3)c2)cc1 [Example 527, 2-(4-((2-(2-oxa-6-azaspiro[3.3]heptan-6-yl)pyridin-4-yl)oxy)pheny)-4-(2,6-difluorobenzyl)-2,4-dihydro-3H-1,2,4-triazol-3-one] | 100 to 1000
21 | CCC1(Nc2cc(Oc3ccc(-n4ncn(Cc5c(F)cccc5F)c4=O)cc3)ccn2)CC1 [Example 528, 4-(2,6-difluorobenzyl)-2-(4-((2-((1-ethylcyclopropyl)amino)pyridin-4-yl)oxy)phenyl)-2,4-dihydro-3H-1,2,4-triazol-3-one] | 100 to 1000
22 | O=c1n(Cc2c(F)cccc2F)cnn1-c1ccc(Oc2ccnc(N3CCCCC3)c2)cc1 [Example 529, 4-(2,6-difluorobenzyl)-2-(4-((2-(piperidin-1-yl)pyridin-4-yl)oxy)phenyl)-2,4-dihydro-3H-1,2,4-triazol-3-one] | 100 to 1000
23 | O=c1n(Cc2c(F)cccc2F)cnn1-c1ccc(Oc2ccnc(NC3CC4(COC4)C3)c2)cc1 [Example 530, 2-(4-((2-((2-oxaspiro[3.3]heptan-6-yl)amino)pyridin-4-yl)oxy)phenyl)-4-(2,6-difluorobenzyl)-2,4-dihydro-3H-1,2,4-triazol-3-one] | 100 to 1000
24 | CC1(Nc2cc(Oc3ccc(-n4ncn(Cc5c(F)cccc5F)c4=O)cc3)ccn2)COC1 [Example 531, 4-(2,6-difluorobenzyl)-2-(4-((2-((3-methyloxetan-3-yl)amino)pyridin-4-yl)oxy)phenyl)-2,4-dihydro-3H-1,2,4-triazol-3-one] | > 10000
25 | CC1(Nc2cc(Oc3ccc(-n4ncn(Cc5c(F)cccc5F)c4=O)cc3)ccn2)CC1 [Example 532, 4-(2,6-difluorobenzyl)-2-(4-((2-((1-methylcyclopropyl)amino)pyridin-4-yl)oxy)phenyl)-2,4-dihydro-3H-1,2,4-triazol-3-one] | < 100
26 | CCOC(=O)c1ocnc1Oc1ccc(-n2ncn(Cc3c(F)cccc3F)c2=O)cc1F [Example 534, ethyl 4-(4-(4-(2,6-difluorobenzyl)-5-oxo-4,5-dihydro-1H-1,2,4-triazol-1-yl)-2-fluorophenoxy)oxazole-5-carboxylate] | < 100
27 | CC(C)(O)C#Cc1cc(Oc2ccc(-n3ncn(Cc4c(F)cccc4F)c3=O)cc2)ccn1 [Example 535, 4-(2,6-difluorobenzyl)-2-(4-((2-(3-hydroxy-3-methylbut-1-yn-1-yl)pyridin-4-yl)oxy)phenyl)-2,4-dihydro-3H-1,2,4-triazol-3-one] | 100 to 1000
28 | O=c1n(Cc2c(F)cccc2F)cnn1-c1ccc(C2=CCOCC2)cc1 [Example 536, 4-(2,6-difluorobenzyl)-2-(4-(3,6-dihydro-2H-pyran-4-yl)phenyl)-2,4-dihydro-3H-1,2,4-triazol-3-one] | 1000 to 10000
29 | Cc1cc(N2CC(C)(N)C2)nn1Cc1ccc(-n2ncn(Cc3c(F)cccc3F)c2=O)cc1 [Example 537, 2-(4-((3-(3-amino-3-methylazetidin-1-yl)-5-methyl-1H-pyrazol-1-yl)methyl)phenyl)-4-(2,6-difluorobenzyl)-2,4-dihydro-3H-1,2,4-triazol-3-one] | 1000 to 10000
30 | Cc1c(N2CC(C)(NC(=O)OC(C)(C)C)C2)ncn1Cc1ccc(-n2ncn(Cc3c(F)cccc3F)c2=O)cc1 [Example 538, tert-butyl (1-(1-(4-(4-(2,6-difluorobenzyl)-5-oxo-4,5-dihydro-1H-1,2,4-triazol-1-yl)benzyl)-5-methyl-1H-imidazol-4-yl)-3-methylazetidin-3-yl)carbamate] | < 100
31 | Cc1c(I)ncn1Cc1ccc(-n2ncn(Cc3c(F)cccc3F)c2=O)cc1 [Example 539, 4-(2,6-difluorobenzyl)-2-(4-((4-iodo-5-methyl-1H-imidazol-1-yl)methyl)phenyl)-2,4-dihydro-3H-1,2,4-triazol-3-one] | < 100
